We go through five compounds from patent US9695164B2, “Crystalline forms of pyrroloquinoline quinone disodium salt” (Zhucheng Haotian Pharm Co., Ltd., priority 2012, dated 2017).

Format in all cases: physicochemical
Series [1] can be described thus: Approximate solubility of PQQ disodium salt in various solvents by gravimetric analysis. The following applies: for Solubility @ 25: 25° C.; for Solubility @ 50: 50° C. How it is done:
Before preparation of the crystals, conventional methods may be employed to measure the solubility of the PQQ disodium salt in different solvents, and subsequently appropriate solvent(s) may be selected to prepare the crystals of the invention. For example, the following method may be used to measure the solubility of the PQQ disodium salt in various solvents:
(1) At 25° C. and 50° C. respectively, about 25 mg PQQ disodium salt is stirred in 1 ml solvent to equilibrium for at least 24 h, and subsequently the solution is filtered, wherein the solvent in the liquid part is volatized under vacuum completely. The approximate solubility of the raw material in the solvent is determined by gravimetric analysis.
Gravimetric analysis: a volume (generally 0.5 mL) of the filtrate is weighed accurately and placed in a vessel which has already been dried and weighed, wherein the weight of the vessel is indicated as Mhollow. Subsequently, the total weight of the vessel and the filtrate is measured and indicated as M0. Then, the weight of the filtrate is M0−Mhollow. After the solvent is volatized completely under vacuum, the total weight is measured accurately again (indicated as M1). Then, the mass of the precipitated solid is M1−Mhollow, and the mass of the solvent is M0−M1. As such, the approximate solubility of the raw material in this solvent is: X(g)=[(M1−Mhollow)/(M0−M1)]×100(g)

The nature of series [2]: Hygroscopic analysis (DVS). The following applies: 25° C.; for moisture absorption / hygroscopicity compared among crystal forms (overlay of DVS graphs) / hygroscopicity (in words): disodium salt; for hygroscopicity compared among crystal forms (overlay of DVS graphs): at 80% RH; for variation of hygroscopicity: conventional storage environment of 40-80 RH. How it is done: 4. Hygroscopic Analysis As indicated by DVS (FIG. 4), crystalline Form A absorbs 1.6% of moisture at 40% RH, 2.3% at 65% RH, and 2.8% at 80% RH. […] Instrument model: SMS DVS Intrinsic, 0-95% RH, Temperature: 25° C. As described above, crystal E was prepared according to Example 1 in patent literature 1. The hygroscopic analysis graph of crystal E (shown in FIG. 21) was obtained using the DVS test method and conditions used in the foregoing examples, and its hygroscopic property was compared with those of crystals A and B according to the invention (the results are shown in FIG. 22).

Series [3] can be described thus: Crystal form stability (Table 3). The conditions noted are these: disodium salt.
Series [4] in a line: Solvent content (thermogravimetric analysis, Table 3). The following applies: disodium salt. How it is done: 2. Thermogravimetric Analysis
(the theoretical weight loss of a water molecule is 4.6%). It is possibly a hydrate. The peak temperature of decomposition is 312.5° C.
Instrument model: Netzsch TG 209F3
Temperature range: 30-400° C.
Protection gas: 15 mL/min

The mark [5] stands for this setting: solvent acetonitrile:methyl isobutyl ketone (1.1).
[6] abbreviates: solvent acetonitrile:methyl tert-butyl ether (1:1), first line (r31).
Setting [7] is: solvent acetonitrile:methyl tert-butyl ether (1:1), second line (r33).
[8] abbreviates: solvent acetonitrile:toluene (1:1).
Setting [9] is: solvent acetonitrile:water (1:1).
[10] abbreviates: solvent methyl tert-butyl ether.
[11] abbreviates: solvent tetrahydrofuran:water (1:1).

“Also recorded” adds a separate entry of the source. Where a name gives a salt, the structure may show the parent alone.

For `O=C(O)c1cc(C(=O)O)c2c(n1)C(=O)C(=O)c1cc(C(=O)O)[nH]c1-2` [PQQ disodium salt, pyrroloquinoline quinone disodium salt], the “Solubility @ 25” value in series [1] (solvent acetone:water (1:1)) is listed as 0.53 g/100 g; in series [1] (solvent acetone), 0.13 g/100 g; in series [1] (setting [5]), 0.09 g/100 g; in series [1] (setting [6]), 0.10 g/100 g; in series [1] (setting [7]), 0.03 g/100 g; in series [1] (setting [8]), 0.04 g/100 g. Further, the “Solubility @ 25” value amounted to 0.22 g/100 g in series [1] (setting [9]); 0.01 g/100 g in series [1] (solvent acetonitrile); 0.02 g/100 g in series [1] (solvent chloroform); 0.02 g/100 g in series [1] (solvent dichloromethane); 0.10 g/100 g in series [1] (solvent ethanol:water (1:1)); 0.08 g/100 g in series [1] (solvent ethanol). For the same compound, the “Solubility @ 25” value in series [1] (solvent ethyl acetate) was 0.11 g/100 g; in series [1] (solvent ethyl ether), 0.06 g/100 g; in series [1] (solvent heptane), 0.02 g/100 g; in series [1] (solvent hexane), 0.06 g/100 g; in series [1] (solvent isopentanol), 0.02 g/100 g; in series [1] (solvent isopropanol), 0.09 g/100 g. In addition, the “Solubility @ 25” value in series [1] (solvent isopropyl acetate) was 0.36 g/100 g; in series [1] (solvent methanol:water (1:1)), 0.15 g/100 g; in series [1] (solvent methanol), 0.09 g/100 g; in series [1] (solvent methyl ethyl ketone), 0.16 g/100 g; in series [1] (solvent methyl isobutyl ketone) it was 0.05 g/100 g; in series [1] (setting [10]), 0.05 g/100 g. The “Solubility @ 25” value in series [1] (solvent nitromethane) is reported as 0.01 g/100 g; in series [1] (setting [11]) it was 0.24 g/100 g; in series [1] (solvent tetrahydrofuran) it was 0.15 g/100 g; in series [1] (solvent toluene) it was 0.02 g/100 g; in series [1] (solvent water), 0.37 g/100 g. Besides, the “Solubility @ 50” value in series [1] (solvent acetone:water (1:1)) came out at 1.36 g/100 g; in series [1] (solvent acetone) it was 0.05 g/100 g; in series [1] (setting [5]), 0.04 g/100 g; in series [1] (setting [6]), 0.04 g/100 g; in series [1] (setting [7]), 0.02 g/100 g; in series [1] (setting [8]) it was 0.00 g/100 g. In addition, the “Solubility @ 50” value in series [1] (setting [9]) worked out at 0.14 g/100 g; in series [1] (solvent acetonitrile), 0.05 g/100 g; in series [1] (solvent chloroform) it was 0.03 g/100 g; in series [1] (solvent dichloromethane), 0.04 g/100 g; in series [1] (solvent ethanol:water (1:1)), 0.10 g/100 g; in series [1] (solvent ethanol) it was 0.11 g/100 g. For the same compound, the “Solubility @ 50” value in series [1] (solvent ethyl acetate) was found to be 0.09 g/100 g; in series [1] (solvent ethyl ether) it was 0.01 g/100 g; in series [1] (solvent heptane) it was 0.11 g/100 g; in series [1] (solvent hexane) it was 0.02 g/100 g; in series [1] (solvent isopentanol), 0.00 g/100 g; in series [1] (solvent isopropanol) it was 0.08 g/100 g. Moreover, the “Solubility @ 50” value in series [1] (solvent isopropyl acetate) is 0.03 g/100 g; in series [1] (solvent methanol:water (1:1)) it was 0.13 g/100 g; in series [1] (solvent methanol) it was 0.11 g/100 g; in series [1] (solvent methyl ethyl ketone) it was 0.06 g/100 g; in series [1] (solvent methyl isobutyl ketone) it was 0.07 g/100 g; in series [1] (setting [10]), 0.03 g/100 g. The “Solubility @ 50” value in series [1] (solvent nitromethane) is recorded as 0.02 g/100 g; in series [1] (setting [11]) it was 0.29 g/100 g; in series [1] (solvent tetrahydrofuran) it was 0.24 g/100 g; in series [1] (solvent toluene) it was 0.05 g/100 g; in series [1] (solvent water) it was 0.89 g/100 g.

Turning to `O=C(O)c1cc(C(=O)O)c2c(n1)C(=O)C(=O)c1cc(C(=O)O)[nH]c1-2` [crystal E, pyrroloquinoline quinone disodium salt], the moisture absorption in series [2] (40% RH) is given as 11.8%; in series [2] (65% RH) it was 13.0%; in series [2] (80% RH), 13.6%. The “hygroscopicity compared among crystal forms (overlay of DVS graphs)” value in series [2] is “largest hygroscopicity”. In series [2], the variation of hygroscopicity result is listed as “less than 2%”. Further, the “hygroscopicity (in words)” value in series [2] was “rather hygroscopic; also recorded: slightly hygroscopic”.

For the compound `O=C(O)c1cc(C(=O)O)c2c(n1)C(=O)C(=O)c1cc(C(=O)O)[nH]c1-2` [crystalline Form A, pyrroloquinoline quinone disodium salt], the Crystal form stability entry in series [3] is “Stable”. The moisture absorption in series [2] (40% RH) was determined as 1.6%. Further, in series [2], the “hygroscopicity compared among crystal forms (overlay of DVS graphs)” value is reported as “smallest hygroscopicity”, the variation of hygroscopicity result is reported as “less than 2%” and the “hygroscopicity (in words)” value is reported as “only slightly hygroscopic”. In addition, the “Solvent content (%)” value in series [4] is given as 7.4%.

Regarding `O=C(O)c1cc(C(=O)O)c2c(n1)C(=O)C(=O)c1cc(C(=O)O)[nH]c1-2` [crystalline Form B, pyrroloquinoline quinone disodium salt], the Crystal form stability result in series [3] is “Stable”. For the same compound, the moisture absorption in series [2] (40% RH) was found to be 7.3%. The “hygroscopicity compared among crystal forms (overlay of DVS graphs)” value in series [2] is “medium hygroscopicity; also recorded: relatively large hygroscopicity”. Besides, the “Solvent content (%)” value in series [4] came out at 12.2%.

Regarding `O=C(O)c1cc(C(=O)O)c2c(n1)C(=O)C(=O)c1cc(C(=O)O)[nH]c1-2` [crystalline Form C, pyrroloquinoline quinone disodium salt], the moisture absorption in series [2] (40% RH) is reported as 7.8%. For the same compound, in series [2], the “hygroscopicity compared among crystal forms (overlay of DVS graphs)” value is given as “largest hygroscopicity” and the “hygroscopicity (in words)” value is given as “highly hygroscopic”. Also, in series [4], the “Solvent content (%)” value stood at 11.4%.
